Source: the NIST ThermoML archive (doi:10.1016/j.jct.2013.07.010)

Assays:
[1] = 101 kPa, Liquid; for viscosity: Capillary tube (Ostwald / Ubbelohde) method; for mass density: Vibrating tube method
[2] = cn = amount concentration of the nth substance listed, in mol/dm3; conditions: 101 kPa, Liquid; for viscosity: Capillary tube (Ostwald / Ubbelohde) method; for mass density: Vibrating tube method

CO [methanol]
[1]
Conditions | mass density [kg/m3] | viscosity [mPa·s]
298.15 K | 786.62 | 0.5451
308.15 K | 777.18 | 0.476
318.15 K | 767.74 | 0.4183

CO [methanol] + CCCC[N+](CCCC)(CCCC)CCCC.[Br-]
[2], c2 = 0
Conditions | mass density [kg/m3] | viscosity [mPa·s]
298.15 K | 786.62 | 0.5451
308.15 K | 777.18 | 0.476
318.15 K | 767.74 | 0.4183

CCCC[N+](CCCC)(CCCC)CCCC.[Br-] [tetrabutylammonium bromide] + CO
[2]
Conditions | mass density, 298.15 K [kg/m3] | mass density, 308.15 K [kg/m3] | mass density, 318.15 K [kg/m3] | viscosity, 298.15 K [mPa·s] | viscosity, 308.15 K [mPa·s] | viscosity, 318.15 K [mPa·s]
c1 = 0.02 | 790.69 | 780.94 | 771.06 | 0.5542 | 0.4951 | 0.439
c1 = 0.04 | 792.74 | 783.43 | 773.92 | 0.581 | 0.5135 | 0.4469
c1 = 0.05 | 794.89 | 785.33 | 775.68 | 0.5973 | 0.5274 | 0.4584
